Results reported in the supplement of paper PMC8671470.
Where a name gives a salt, the structure may show the parent alone.

Legend:
Settings in all cases: 72 h
MV4-11 [1] = system: MV4-11
Procedure, shortened: (§1)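 The IC50 was read from log-logistic dose–response fits. Fifteen myeloid leukaemia lines were exposed for 72 h at 37 °C with 5% CO2 to five tenfold doses from 1 to 10,000 nM in duplicate. ATP luminescence, normalised to vehicle and to a 10 µM positive control, was fitted with four parameters.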

K-562 [2] = system: K-562
Procedure, shortened: as §1

NOMO-1 [3] = system: NOMO-1
Procedure, shortened: as §1

ML-2 [4] = system: ML-2
Procedure, shortened: as §1

KCL-22 [5] = system: KCL-22
Procedure, shortened: as §1

KG-1 [6] = system: KG-1
Procedure, shortened: as §1

LAMA-84 [7] = system: LAMA-84
Procedure, shortened: as §1

KU-812 [8] = system: KU-812
Procedure, shortened: as §1

SHI-1 [9] = system: SHI-1
Procedure, shortened: as §1

Mono-Mac-6 [10] = system: Mono-Mac-6
Procedure, shortened: as §1

BV-173 [11] = system: BV-173
Procedure, shortened: as §1

HL-60 [12] = system: HL-60
Procedure, shortened: as §1

MOLM-13 [13] = system: MOLM-13
Procedure, shortened: as §1

THP-1 [14] = system: THP-1
Procedure, shortened: as §1

HEL [15] = system: HEL
Procedure, shortened: as §1

MV4-11 [16] = assay: cell viability (% survival relative to DMSO control, bortezomib = 0%); higher = less cytotoxic
Procedure, shortened: (§2)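 Fifteen myeloid leukaemia cell lines were exposed to compounds at 1, 10, 100, 1000 or 10000 nM in 384-well plates for 72 h at 37 °C and 5% CO2. Viability was read by CellTiter-Glo luminescence and normalised, with vehicle as 100% and a 10 µM positive control as 0%. Values are percent survival averaged over duplicates.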

K-562 [17] = assay: as above
Procedure, shortened: as §2

NOMO-1 [18] = assay: as above
Procedure, shortened: as §2

ML-2 [19] = assay: as above
Procedure, shortened: as §2

KCL-22 [20] = assay: as above
Procedure, shortened: as §2

KG-1 [21] = assay: as above
Procedure, shortened: as §2

LAMA-84 [22] = assay: as above
Procedure, shortened: as §2

KU-812 [23] = assay: as above
Procedure, shortened: as §2

SHI-1 [24] = assay: as above
Procedure, shortened: as §2

Mono-Mac-6 [25] = assay: as above
Procedure, shortened: as §2

BV-173 [26] = assay: as above
Procedure, shortened: as §2

HL-60 [27] = assay: as above
Procedure, shortened: as §2

MOLM-13 [28] = assay: as above
Procedure, shortened: as §2

THP-1 [29] = assay: as above
Procedure, shortened: as §2

HEL [30] = assay: as above
Procedure, shortened: as §2

CCN(CCO)CCCC(C)Nc1ccnc2cc(Cl)ccc12 (stereo not given) [Hydroxychloroquine sulfate]
Settings	IC50 (cell viability) [µM]
BV-173 [11]	> 10
HEL [15]	> 10
HL-60 [12]	> 10
K-562 [2]	> 10
KCL-22 [5]	> 10
KG-1 [6]	> 10
KU-812 [8]	> 10
LAMA-84 [7]	> 10
ML-2 [4]	> 10
MOLM-13 [13]	> 10
MV4-11 [1]	> 10
Mono-Mac-6 [10]	> 10
NOMO-1 [3]	> 10
SHI-1 [9]	> 10
THP-1 [14]	> 10

cell viability [%]
Settings	1 nM	10 nM	100 nM	1000 nM	10000 nM
BV-173 [26]	79.7	107	97.6	84.3	94.8
HEL [30]	89.5	102	99	128	98
HL-60 [27]	125	101	96.5	98.5	84.1
K-562 [17]	84.1	97.8	105	101	111
KCL-22 [20]	88.5	113	99.1	119	99.3
KG-1 [21]	95.1	108	94.6	112	114
KU-812 [23]	93	103	105	99	97
LAMA-84 [22]	87	108	106	94.9	93.6
ML-2 [19]	92.7	128	92.2	106	105
MOLM-13 [28]	81	117	91.8	127	108
MV4-11 [16]	78.8	112	93.2	102	106
Mono-Mac-6 [25]	92.7	104	91.8	88.2	86.7
NOMO-1 [18]	94.4	106	98.8	94.9	98.2
SHI-1 [24]	95.5	106	101	127	104
THP-1 [29]	91.5	106	102	92.2	110

O=c1cc(-c2ccccc2)oc2c1ccc1ccccc12 [Alpha-Naphtoflavone]
Settings	IC50 (cell viability) [µM]
BV-173 [11]	> 10
HEL [15]	> 10
HL-60 [12]	> 10
K-562 [2]	> 10
KCL-22 [5]	> 10
KG-1 [6]	> 10
KU-812 [8]	> 10
LAMA-84 [7]	> 10
ML-2 [4]	> 10
MOLM-13 [13]	> 10
MV4-11 [1]	> 10
Mono-Mac-6 [10]	> 10
NOMO-1 [3]	> 10
SHI-1 [9]	> 10
THP-1 [14]	> 10

cell viability [%]
Settings	1 nM	10 nM	100 nM	1000 nM	10000 nM
BV-173 [26]	105	92.1	105	111	108
HEL [30]	96.1	95.6	102	96.4	102
HL-60 [27]	118	83.8	95.6	104	103
K-562 [17]	95.8	101	109	90.2	108
KCL-22 [20]	107	98.1	97.7	85.8	84.8
KG-1 [21]	114	89.4	95.1	90.9	74.7
KU-812 [23]	98.8	99.3	96.3	96	89.9
LAMA-84 [22]	103	95.9	103	93.5	94.4
ML-2 [19]	101	102	93.4	83.4	82.3
MOLM-13 [28]	115	93.5	96.2	80.9	90.1
MV4-11 [16]	106	109	107	89.6	97.1
Mono-Mac-6 [25]	92.7	90.3	93.6	111	113
NOMO-1 [18]	99.7	94.3	108	95.6	95.2
SHI-1 [24]	113	99.2	97.7	95.8	96.8
THP-1 [29]	98.3	99.6	102	102	101

CN(Cc1cnc2nc(N)nc(N)c2n1)c1ccc(C(=O)N[C@@H](CCC(=O)O)C(=O)O)cc1 [Methotrexate]
Settings	IC50 (cell viability) [µM]
BV-173 [11]	0.0323
HEL [15]	0.0037
HL-60 [12]	0.00701
K-562 [2]	0.033
KCL-22 [5]	0.0126
KG-1 [6]	> 10
KU-812 [8]	0.0157
LAMA-84 [7]	0.00473
ML-2 [4]	0.00965
MOLM-13 [13]	0.00757
MV4-11 [1]	0.00896
Mono-Mac-6 [10]	0.00826
NOMO-1 [3]	0.0515
SHI-1 [9]	0.0808
THP-1 [14]	0.0319

cell viability [%]
Settings	1 nM	10 nM	100 nM	1000 nM	10000 nM
BV-173 [26]	107	98.3	2.71	1.64	2.28
HEL [30]	102	18.6	27.9	6.63	7.79
HL-60 [27]	81.5	32	5.38	7.28	8.39
K-562 [17]	86.9	103	13.3	18.9	21.7
KCL-22 [20]	97.1	59.2	40.4	21.1	20.7
KG-1 [21]	104	93.8	98.9	94.3	92.9
KU-812 [23]	99	63.1	38.9	33.3	42.5
LAMA-84 [22]	98.8	34	22.7	19.4	20.8
ML-2 [19]	109	49.7	3.59	3.44	4.58
MOLM-13 [28]	88.1	33.1	0.91	0.853	0.962
MV4-11 [16]	112	45.4	3.4	2.47	3.21
Mono-Mac-6 [25]	105	44.3	5.95	7.21	7.86
NOMO-1 [18]	108	94.8	40.4	29.4	30.8
SHI-1 [24]	83.7	90.7	44.4	35.8	47.1
THP-1 [29]	99.8	96.6	13	10.3	11.8
